We go through eleven compounds from ChEMBL document CHEMBL1201862, “PubChem BioAssay data set” (2004).

Holding throughout (assay): NCI anticancer screen, dose series, 48 h
In test [1] the test system is A549.
The subject of test [2] is SF-295.
The test system of test [3] is CAKI-1.
Test [4] has as its system M14.
Test [5] concerns DU-145.
In test [6] the test system is UO-31.
The subject of test [7] is ACHN.
The test system of test [8] is OVCAR-4.
Test [9] relates to EKVX.
The subject of test [10] is HT-29.
For test [11], the system named is T47D.
For test [12], the system named is PC-3.
The test system of test [13] is SK-MEL-2.
Test [14] deals with MCF7.
For test [15], the system named is HCT-116.
In test [16] the test system is MDA-N.
The test system of test [17] is NCI-H23.
Test [18] relates to U-251.
The subject of test [19] is NCI-H226.
Test [20] relates to A498.

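96-well plates; 48 h exposure; 5 concentrations. Endpoints by linear interpolation between flanking doses. Not reached: highest tested concentration assigned. The concentration for 50% growth inhibition is given as GI50.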 Calls of active or inactive are those of the source. Rule as the data show it: active = GI50 up to about 1.1 µM and inactive = higher.

`CNCCN[C@@H]1c2cc3c(cc2[C@@H](c2cc(OC)c(O)c(OC)c2)[C@H]2C(=O)OC[C@@H]21)OCO3`: the GI50 is 0.0708 µM (active) in test [1]; 0.0973 µM (active) in [2]; 0.264 µM (active) in test [3]; 0.394 µM (active) in test [4]; 0.27 µM (active) in test [5]; 1.32 µM (inactive) in test [6]. The GI50 in [7] is 0.106 µM (active); in test [8] it was 5.3 µM (inactive); in [9], 2.23 µM (inactive); in [10] it was 0.494 µM (active); in test [11], 0.138 µM (active); in test [12], 0.649 µM (active). For the same compound, the GI50 was 0.44 µM (active) in test [13]; 0.0296 µM (active) in [14]; 0.432 µM (active) in [15]; 1.04 µM (active) in [16]; 0.185 µM (active) in [17]; 0.125 µM (active) in [18]. Further, the GI50 in [19] is 0.0946 µM (active).

`COc1cc(OC)c(NC2=NCCO2)cc1Cl`: the GI50 is 46.3 µM (inactive) in [1]; 82.8 µM (inactive) in test [2]; 31.3 µM (inactive) in [4]; 38.2 µM (inactive) in test [5]; 91.6 µM (inactive) in [6]; 64.7 µM (inactive) in [7]. The GI50 is > 100 µM (inactive) in test [8]; 61.9 µM (inactive) in test [9]; 23.5 µM (inactive) in test [10]; 54.5 µM (inactive) in test [11]; 24.3 µM (inactive) in test [12]; 32.7 µM (inactive) in [20]. In addition, the GI50 in test [13] was 17.3 µM (inactive); in test [14], 49.1 µM (inactive); in test [15], 34.4 µM (inactive); in test [16], 17.1 µM (inactive); in test [17] it was 22.2 µM (inactive); in test [18], 39.7 µM (inactive). The GI50 in test [19] was 25.7 µM (inactive).

Regarding `CC1=NN(C(=O)CC(=O)Nc2cccc(C)c2)C(=O)C1/N=N/c1ccc(C(=O)O)cc1` (centres undefined), the GI50 is > 100 µM (inactive) in [1]; > 100 µM (inactive) in test [2]; > 100 µM (inactive) in test [3]; > 100 µM (inactive) in [4]; > 100 µM (inactive) in test [5]; 64.4 µM (inactive) in test [6]. Moreover, the GI50 in test [7], in [8], in test [9], in test [10], in [11] and in [12] was > 100 µM (inactive) throughout. The GI50 in test [20], in test [13], in test [14], in test [15], in test [16] and in test [17] was > 100 µM (inactive) in each case. Also, the GI50 in test [18] was > 100 µM (inactive).

Consider `CCC(=O)NC(Nc1ccccc1F)(C(F)(F)F)C(F)(F)F`, for which the GI50 in test [1], in [2], in test [3], in [4], in [5] and in test [6] was > 100 µM (inactive) throughout. Also, the GI50 was > 100 µM (inactive) in test [7]; > 100 µM (inactive) in test [8]; > 100 µM (inactive) in test [9]; > 100 µM (inactive) in [10]; 40.9 µM (inactive) in test [11]; > 100 µM (inactive) in [12]. Moreover, the GI50 in test [13], in [14], in test [15], in [16], in test [17] and in [18] was > 100 µM (inactive) in each case.

As for `COc1ccc(OC)c(C(=O)c2cccc(C(=O)c3cc(OC)ccc3OC)n2)c1`, the GI50 is 42.9 µM (inactive) in test [1]; 29.9 µM (inactive) in test [2]; 71.8 µM (inactive) in test [3]; 33.6 µM (inactive) in [4]; 93.1 µM (inactive) in test [5]; 17.9 µM (inactive) in test [6]. For the same compound, the GI50 is 43.5 µM (inactive) in test [7]; > 100 µM (inactive) in test [8]; 41.1 µM (inactive) in test [9]; 35.7 µM (inactive) in test [10]; 29.6 µM (inactive) in test [11]; 33.6 µM (inactive) in [12]. Further, the GI50 in test [13] was 23 µM (inactive); in test [14] it was 26.5 µM (inactive); in [15], 43.9 µM (inactive); in test [16], 17 µM (inactive); in test [17] it was 20 µM (inactive); in test [18], 27.4 µM (inactive). In addition, in test [19], the GI50 was 27.3 µM (inactive).

For `N#C/C(=C\c1ccc(F)cc1)c1nc(-c2cc3ccccc3oc2=O)cs1`, the GI50 is 55.5 µM (inactive) in [1]; 14 µM (inactive) in test [2]; 53.6 µM (inactive) in test [3]; 13.8 µM (inactive) in [4]; 38.6 µM (inactive) in test [5]; 26.9 µM (inactive) in [6]. The GI50 in test [7] is 22 µM (inactive); in [8], 10.4 µM (inactive); in test [9], 30.8 µM (inactive); in [10], 40.1 µM (inactive); in test [11] it was 24.2 µM (inactive); in test [12], 31.7 µM (inactive). Besides, the GI50 in test [13] was 30.3 µM (inactive); in test [14] it was 37.8 µM (inactive); in test [15], 35.2 µM (inactive); in test [16], 76.2 µM (inactive); in test [18] it was 14.6 µM (inactive); in test [19], 28.7 µM (inactive).

`Nc1ccc(Nc2cc(=O)[nH]c(=O)[nH]2)cc1Cl`: the GI50 in test [1], in [2], in test [3], in test [4], in [5] and in test [6] was > 100 µM (inactive) throughout. Also, the GI50 in test [7], in test [8], in [10], in test [11], in [12] and in [20] was > 100 µM (inactive) throughout. Further, the GI50 in [13], in test [14], in [15], in test [16], in test [17] and in test [18] was > 100 µM (inactive) throughout. Besides, the GI50 in test [19] was > 100 µM (inactive).

Take `CCCCCc1c(CCCC)c(O)nc2nc(NC(=O)CCCC)ccc12`: the GI50 in test [1], in test [2], in test [3], in [4], in test [6] and in [7] was > 100 µM (inactive) each time. For the same compound, the GI50 in test [8], in test [9], in test [11], in [12], in test [20] and in [13] was > 100 µM (inactive) throughout. Also, the GI50 in test [14], in [15], in test [16], in test [17], in test [18] and in test [19] was > 100 µM (inactive) throughout.

For the compound `FC(F)(F)C1(C(F)(F)F)OC(Cl)(Cl)C(Cl)(Cl)O1`, the GI50 in test [1], in test [2], in test [3], in test [4], in test [5] and in [7] was > 10 µM (inactive) in each case. In addition, the GI50 in test [8], in [9], in test [10], in test [11], in [12] and in test [20] was > 10 µM (inactive) each time. In addition, the GI50 in test [13], in test [14], in [15], in [16], in test [17] and in [18] was > 10 µM (inactive) each time. Besides, the GI50 in [19] was > 10 µM (inactive).

As to `CCOP(=O)(OCC)C(Cc1ccc(Cl)cc1)NS(=O)(=O)c1ccc(C)cc1` (centres undefined), the GI50 in test [1], in test [2], in test [3], in test [4], in test [5] and in test [7] was > 100 µM (inactive) throughout. Besides, the GI50 in test [8], in [9], in test [10], in [11], in test [12] and in test [20] was > 100 µM (inactive) each time. The GI50 in test [13], in test [14], in [16], in [17] and in test [18] was > 100 µM (inactive) throughout.

Turning to `c1cc(C[S+]2CCCC2)sc1C[S+]1CCCC1`, the GI50 in test [1], in test [2], in [3], in [4], in [5] and in test [6] was > 100 µM (inactive) each time. The GI50 in test [7], in [8], in [9], in [10], in test [11] and in test [12] was > 100 µM (inactive) each time. In addition, the GI50 was 39.2 µM (inactive) in test [20]; > 100 µM (inactive) in [14]; > 100 µM (inactive) in test [15]; > 100 µM (inactive) in test [16]; > 100 µM (inactive) in test [17]; > 100 µM (inactive) in [18]. Further, in test [19], the GI50 was > 100 µM (inactive).
